From US20080009418A1, “Selective Inhibitors” (Alchemia LTD., priority 2004, published 2008)

Tests used:
[1] = biological target: T1, Human κ-Opioid (KOP) (Homo sapiens, UniProt P41145); assay: Radioligand binding, human κ-opioid (KOP) membranes, filtration, [3H]-Diprenorphine; settings: compound at 10 μM, [3H]-Diprenorphine
T1 construct: purchased Perkin Elmer Biosignal
How it was run: (§1)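 Membranes from cloned human receptors were incubated with compound and radioligand for 1 hour at room temperature. Bound ligand was collected on 0.3% PEI-soaked filters, washed with cold 50 mM Tris-HCl pH 7.4, and counted by scintillation. Percent inhibition was computed against DMSO totals and reference-ligand nonspecific wells.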

[2] = biological target: T2, Human Melanocortin (MC4) (Homo sapiens, UniProt P32245); assay: Radioligand binding, human melanocortin MC4 membranes, FlashPlate, [125I]-NDP-αMSH; settings: compound at 10 μM, [125I]-NDP-αMSH
T2 construct: purchased Perkin Elmer Biosignal
How it was run: (§2)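 Cloned human receptor membranes were coated onto FlashPlate wells and incubated with radioligand and compound (added from a 0.5 mM DMSO daughter plate) for 1 hour at room temperature in the dark. Scintillation counting gave percent inhibition, with DMSO defining total and reference ligand defining non-specific binding.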

[3] = biological target: T3, Mouse urotensin (mUR2) (Mus musculus, UniProt Q8VIH9); assay: Radioligand binding, mouse urotensin mUR2 membranes, FlashPlate, [125I]-Urotensin II; settings: compound at 10 μM, [125I]-Urotensin II
T3 construct: purchased Perkin Elmer Biosignal
T3 sequence (Q8VIH9 1-385): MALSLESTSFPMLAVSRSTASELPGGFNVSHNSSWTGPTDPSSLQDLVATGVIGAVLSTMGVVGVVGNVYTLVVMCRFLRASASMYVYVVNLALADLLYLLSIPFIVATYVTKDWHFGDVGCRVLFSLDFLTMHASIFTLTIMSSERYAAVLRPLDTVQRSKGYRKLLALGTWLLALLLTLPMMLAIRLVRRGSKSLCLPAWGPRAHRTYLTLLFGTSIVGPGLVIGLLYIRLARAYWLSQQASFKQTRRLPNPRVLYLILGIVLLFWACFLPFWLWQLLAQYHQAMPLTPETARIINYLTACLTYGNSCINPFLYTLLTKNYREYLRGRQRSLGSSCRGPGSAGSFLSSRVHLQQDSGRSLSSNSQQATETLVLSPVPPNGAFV
How it was run: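 Cloned mouse urotensin (mUR2) receptor membranes from Perkin Elmer Biosignal were immobilized in FlashPlate microplates using a proprietary coating. Each well got 19.5 μl buffer, then 0.5 μl of DMSO, reference ligand, or compound. Adding 5 μl of [125I]-Urotensin II, diluted to 5× final concentration in binding buffer, started binding. Plates were sealed with TopSeal-A and incubated 1 hour at room temperature in the dark. Wells were counted for 30 seconds each on a TopCount after a 60-second delay, and percentage inhibition was calculated.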

[4] = biological target: T4, Human neurokinin (NK1) (Homo sapiens, UniProt P25103); assay: Radioligand binding, human neurokinin NK1 membranes, filtration, [125I]-Substance P; settings: compound at 10 μM, [125I]-Substance P
T4 construct: purchased Perkin Elmer Biosignal
How it was run: as §1

[5] = biological target: T5, Human δ-opioid (DOP) (Homo sapiens, UniProt P41143); assay: Radioligand binding, human δ-opioid (DOP) membranes, FlashPlate, [3H]-Bremazocine; settings: compound at 10 μM, [3H]-Bremazocine
T5 construct: purchased Perkin Elmer Biosignal
How it was run: as §2

[6] = biological target: T6, Human opioid (ORL1) (Homo sapiens, UniProt P41146); assay: Radioligand binding, human opioid ORL1 membranes, FlashPlate, [125I]-Nociceptin; settings: compound at 10 μM, [125I]-Nociceptin
T6 construct: purchased Perkin Elmer Biosignal
How it was run: as §2

[7] = biological target: T7, Human melanocortin (MC5) (Homo sapiens, UniProt P33032); assay: Radioligand binding, human melanocortin MC5 membranes, FlashPlate, [125I]-NDP-αMSH; settings: compound at 10 μM, [125I]-NDP-αMSH
T7 construct: purchased Perkin Elmer Biosignal
How it was run: as §2

[8] = biological target: T8, Human melanin-concentrating hormone (MCH1) (Homo sapiens, UniProt Q99705); assay: Radioligand binding, human melanin-concentrating hormone MCH1 membranes, FlashPlate, [125I]-S36057; settings: compound at 10 μM
T8 construct: purchased Perkin Elmer Biosignal
How it was run: as §2

[9] = biological target: T9, Human neuropeptide Y (NPY-Y1) (Homo sapiens, UniProt P25929); assay: Radioligand binding, human neuropeptide Y NPY-Y1 membranes, FlashPlate, [125I]-PYY; settings: compound at 10 μM, [125I]-PYY
T9 construct: purchased Perkin Elmer Biosignal
T9 sequence (P25929 1-384): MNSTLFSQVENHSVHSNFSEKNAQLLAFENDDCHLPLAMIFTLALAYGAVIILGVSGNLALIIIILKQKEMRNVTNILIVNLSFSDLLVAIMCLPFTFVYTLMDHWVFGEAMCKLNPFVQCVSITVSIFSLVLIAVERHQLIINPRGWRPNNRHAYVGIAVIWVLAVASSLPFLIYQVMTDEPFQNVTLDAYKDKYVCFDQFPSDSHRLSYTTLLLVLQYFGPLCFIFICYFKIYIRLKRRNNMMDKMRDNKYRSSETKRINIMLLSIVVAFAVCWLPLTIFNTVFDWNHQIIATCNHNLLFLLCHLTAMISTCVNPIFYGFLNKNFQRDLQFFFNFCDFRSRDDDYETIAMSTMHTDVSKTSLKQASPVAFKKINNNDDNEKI
How it was run: as §2

[10] = biological target: T10, Human Melanocortin (MC3) (Homo sapiens, UniProt P41968); assay: Radioligand binding, human melanocortin MC3 membranes, FlashPlate, [125I]-NDP-αMSH; settings: compound at 10 μM, [125I]-NDP-αMSH
T10 construct: purchased Perkin Elmer Biosignal
How it was run: as §2

[11] = biological target: T11, Human μ-opioid (MOP) (Homo sapiens, UniProt P35372); assay: Radioligand binding, human μ-opioid (MOP) membranes, FlashPlate, [3H]-Naloxone; settings: compound at 10 μM, [3H]-Naloxone
T11 construct: purchased Perkin Elmer Biosignal
How it was run: as §2

T2 sequence (P32245 whole entry): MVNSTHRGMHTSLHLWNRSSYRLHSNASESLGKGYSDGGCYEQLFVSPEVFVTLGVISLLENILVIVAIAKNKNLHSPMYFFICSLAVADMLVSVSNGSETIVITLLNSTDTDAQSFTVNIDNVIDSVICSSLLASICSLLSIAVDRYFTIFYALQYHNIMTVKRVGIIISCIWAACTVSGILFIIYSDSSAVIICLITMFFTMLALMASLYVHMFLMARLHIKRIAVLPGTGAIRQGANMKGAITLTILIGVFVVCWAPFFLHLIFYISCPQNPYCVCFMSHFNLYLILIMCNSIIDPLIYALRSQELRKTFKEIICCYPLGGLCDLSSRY
T5 sequence (P41143 whole entry): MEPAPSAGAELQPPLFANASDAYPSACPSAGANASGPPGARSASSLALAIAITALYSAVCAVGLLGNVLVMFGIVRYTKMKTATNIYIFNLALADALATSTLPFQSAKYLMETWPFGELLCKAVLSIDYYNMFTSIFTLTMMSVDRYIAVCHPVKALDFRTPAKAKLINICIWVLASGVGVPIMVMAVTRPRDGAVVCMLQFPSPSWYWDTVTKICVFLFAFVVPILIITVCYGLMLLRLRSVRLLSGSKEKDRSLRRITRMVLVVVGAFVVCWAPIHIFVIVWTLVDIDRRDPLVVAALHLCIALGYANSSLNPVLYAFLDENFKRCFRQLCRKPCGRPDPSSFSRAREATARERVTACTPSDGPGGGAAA
T4 sequence (P25103 whole entry): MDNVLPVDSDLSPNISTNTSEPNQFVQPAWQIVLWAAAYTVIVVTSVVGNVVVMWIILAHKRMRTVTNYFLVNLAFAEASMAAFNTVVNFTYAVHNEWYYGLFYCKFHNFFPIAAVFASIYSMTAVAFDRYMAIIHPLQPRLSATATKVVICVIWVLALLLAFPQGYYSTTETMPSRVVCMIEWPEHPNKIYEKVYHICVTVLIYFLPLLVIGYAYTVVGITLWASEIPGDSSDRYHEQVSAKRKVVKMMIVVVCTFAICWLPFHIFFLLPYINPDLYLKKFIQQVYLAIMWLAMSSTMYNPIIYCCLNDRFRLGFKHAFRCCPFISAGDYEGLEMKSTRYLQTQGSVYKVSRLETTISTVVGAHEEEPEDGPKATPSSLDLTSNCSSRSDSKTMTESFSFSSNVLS
T11 sequence (P35372 whole entry): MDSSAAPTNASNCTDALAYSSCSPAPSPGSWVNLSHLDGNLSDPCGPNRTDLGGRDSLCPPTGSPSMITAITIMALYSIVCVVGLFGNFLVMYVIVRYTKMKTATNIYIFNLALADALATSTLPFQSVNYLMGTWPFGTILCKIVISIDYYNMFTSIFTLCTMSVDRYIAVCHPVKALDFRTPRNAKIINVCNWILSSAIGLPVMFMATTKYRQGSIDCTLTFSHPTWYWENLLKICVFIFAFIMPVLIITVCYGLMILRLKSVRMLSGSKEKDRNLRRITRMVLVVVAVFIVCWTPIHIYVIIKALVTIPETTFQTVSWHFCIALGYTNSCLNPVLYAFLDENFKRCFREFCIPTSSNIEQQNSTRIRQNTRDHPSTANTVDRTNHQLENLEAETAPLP
T10 sequence (P41968 whole entry): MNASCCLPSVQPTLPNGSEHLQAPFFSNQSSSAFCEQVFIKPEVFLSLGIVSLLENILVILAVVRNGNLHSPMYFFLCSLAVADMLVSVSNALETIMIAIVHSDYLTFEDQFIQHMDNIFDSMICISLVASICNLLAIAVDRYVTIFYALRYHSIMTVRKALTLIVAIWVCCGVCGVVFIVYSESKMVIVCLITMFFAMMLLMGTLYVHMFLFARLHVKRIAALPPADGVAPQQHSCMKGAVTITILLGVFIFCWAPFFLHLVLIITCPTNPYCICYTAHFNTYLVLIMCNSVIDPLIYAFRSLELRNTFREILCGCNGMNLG
T6 sequence (P41146 whole entry): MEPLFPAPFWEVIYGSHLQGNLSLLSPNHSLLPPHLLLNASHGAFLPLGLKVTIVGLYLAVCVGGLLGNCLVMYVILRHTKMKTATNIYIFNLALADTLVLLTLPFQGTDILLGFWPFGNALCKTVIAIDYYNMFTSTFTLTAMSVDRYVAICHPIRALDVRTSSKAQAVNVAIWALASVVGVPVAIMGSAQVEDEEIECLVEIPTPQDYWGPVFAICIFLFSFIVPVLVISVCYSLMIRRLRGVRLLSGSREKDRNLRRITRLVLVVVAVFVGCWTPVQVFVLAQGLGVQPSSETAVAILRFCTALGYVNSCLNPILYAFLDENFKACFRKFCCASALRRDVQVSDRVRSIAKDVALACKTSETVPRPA
T1 sequence (P41145 whole entry): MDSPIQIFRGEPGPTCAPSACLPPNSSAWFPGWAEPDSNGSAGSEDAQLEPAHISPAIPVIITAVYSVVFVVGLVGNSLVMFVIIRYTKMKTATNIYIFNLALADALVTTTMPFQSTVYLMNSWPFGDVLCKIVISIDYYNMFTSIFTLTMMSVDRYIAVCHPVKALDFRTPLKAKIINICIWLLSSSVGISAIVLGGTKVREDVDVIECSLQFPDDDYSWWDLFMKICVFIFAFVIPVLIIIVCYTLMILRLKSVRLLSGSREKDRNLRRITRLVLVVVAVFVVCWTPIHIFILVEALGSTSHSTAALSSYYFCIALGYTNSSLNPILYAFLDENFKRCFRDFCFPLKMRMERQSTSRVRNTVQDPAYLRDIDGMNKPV
T8 sequence (Q99705 whole entry): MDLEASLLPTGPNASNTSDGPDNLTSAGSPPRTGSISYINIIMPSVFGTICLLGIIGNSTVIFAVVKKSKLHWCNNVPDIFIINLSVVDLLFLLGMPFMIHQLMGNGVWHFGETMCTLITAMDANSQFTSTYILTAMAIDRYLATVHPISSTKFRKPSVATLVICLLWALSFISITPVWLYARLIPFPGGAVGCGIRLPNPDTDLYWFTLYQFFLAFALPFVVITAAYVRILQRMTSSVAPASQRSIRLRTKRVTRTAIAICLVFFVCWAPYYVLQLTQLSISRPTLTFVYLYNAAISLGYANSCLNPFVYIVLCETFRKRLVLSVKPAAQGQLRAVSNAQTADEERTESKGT
T7 sequence (P33032 whole entry): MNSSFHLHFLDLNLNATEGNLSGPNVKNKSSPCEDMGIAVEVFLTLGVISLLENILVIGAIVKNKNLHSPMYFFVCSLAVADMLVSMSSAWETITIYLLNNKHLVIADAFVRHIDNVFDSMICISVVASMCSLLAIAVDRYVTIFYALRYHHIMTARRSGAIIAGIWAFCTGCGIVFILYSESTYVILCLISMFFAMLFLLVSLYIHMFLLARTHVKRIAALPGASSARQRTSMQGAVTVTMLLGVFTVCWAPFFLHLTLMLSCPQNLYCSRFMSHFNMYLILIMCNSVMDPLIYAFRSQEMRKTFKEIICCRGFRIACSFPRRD

## CO[C@H]1[C@H](O)[C@@H](COCc2cccc(O)c2)OC(OCc2ccccc2)[C@@H]1NC(=O)CCCNC(=N)N (stereo partly shown) [compound 154]
[1]
  A2 radioligand binding, percentage inhibition: − (“−” indicates less than 50% inhibition at 10 μM)
[2]
  A4 radioligand binding, percentage inhibition: − (“−” indicates less than 50% inhibition at 10 μM)
[3]
  A11 radioligand binding, percentage inhibition: − (“−” indicates less than 50% inhibition at 10 μM)
[4]
  A8 radioligand binding, percentage inhibition: + (“+” indicates greater than 50% inhibition at 10 μM)
[5]
  A1 radioligand binding, percentage inhibition: − (“−” indicates less than 50% inhibition at 10 μM)
[6]
  A10 radioligand binding, percentage inhibition: − (“−” indicates less than 50% inhibition at 10 μM)
[7]
  A5 radioligand binding, percentage inhibition: − (“−” indicates less than 50% inhibition at 10 μM)
[8]; [125I]-S36057
  A6 radioligand binding, percentage inhibition: − (“−” indicates less than 50% inhibition at 10 μM)
[9]
  A9 radioligand binding, percentage inhibition: − (“−” indicates less than 50% inhibition at 10 μM)
[10]
  A3 radioligand binding, percentage inhibition: − (“−” indicates less than 50% inhibition at 10 μM)
[11]
  A7 radioligand binding, percentage inhibition: − (“−” indicates less than 50% inhibition at 10 μM)

## COCC1OC(OCc2ccc3ccccc3c2)C(NC(=O)CCCNC(=N)N)C(OCc2ccccc2)C1O (stereo not shown) [compound 234]
[1]; filtration
  A2: inhibition of radioligand binding: − (“−” indicates less than 50% inhibition at 10 μM)
[2]; FlashPlate
  A4: inhibition of radioligand binding: − (“−” indicates less than 50% inhibition at 10 μM)
[3]; FlashPlate
  A11: inhibition of radioligand binding: − (“−” indicates less than 50% inhibition at 10 μM)
[4]; filtration
  A8: inhibition of radioligand binding: + (“+” indicates greater than 50% inhibition at 10 μM)
[5]; FlashPlate
  A1: inhibition of radioligand binding: − (“−” indicates less than 50% inhibition at 10 μM)
[6]; FlashPlate
  A10: inhibition of radioligand binding: − (“−” indicates less than 50% inhibition at 10 μM)
[7]; FlashPlate
  A5: inhibition of radioligand binding: − (“−” indicates less than 50% inhibition at 10 μM)
[8]; [125I]-S36057, FlashPlate
  A6: inhibition of radioligand binding: − (“−” indicates less than 50% inhibition at 10 μM)
[9]; FlashPlate
  A9: inhibition of radioligand binding: − (“−” indicates less than 50% inhibition at 10 μM)
[10]; FlashPlate
  A3: inhibition of radioligand binding: − (“−” indicates less than 50% inhibition at 10 μM)
[11]; FlashPlate
  A7: inhibition of radioligand binding: − (“−” indicates less than 50% inhibition at 10 μM)
